Test [1] deals with MOLM14 D835Y cells. Briefly: MOLM14 D835Y cell viability assay (Cell Titer Glo). The format is cell-based. The settings on record: cell viability, Cell Titer Glo, 48 hours, read-out: MOLM14 D835Y IC50. In a few lines:
(§1)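 MOLM14 cells with FLT3 D835Y or F691L kinase-domain resistance mutations seeded at 1000 cells/well and exposed to compound for 48 h under standard incubator conditions. Viability read by CellTiter-Glo luminescence after 15 min at room temperature.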
In general terms: Cellular ATP, detected with luciferase, serves as a proxy for viable cell number.

The target in test [2] is T1, IRAK4 (Homo sapiens, UniProt Q9NWZ3).
T1 sequence (Q9NWZ3 1-460): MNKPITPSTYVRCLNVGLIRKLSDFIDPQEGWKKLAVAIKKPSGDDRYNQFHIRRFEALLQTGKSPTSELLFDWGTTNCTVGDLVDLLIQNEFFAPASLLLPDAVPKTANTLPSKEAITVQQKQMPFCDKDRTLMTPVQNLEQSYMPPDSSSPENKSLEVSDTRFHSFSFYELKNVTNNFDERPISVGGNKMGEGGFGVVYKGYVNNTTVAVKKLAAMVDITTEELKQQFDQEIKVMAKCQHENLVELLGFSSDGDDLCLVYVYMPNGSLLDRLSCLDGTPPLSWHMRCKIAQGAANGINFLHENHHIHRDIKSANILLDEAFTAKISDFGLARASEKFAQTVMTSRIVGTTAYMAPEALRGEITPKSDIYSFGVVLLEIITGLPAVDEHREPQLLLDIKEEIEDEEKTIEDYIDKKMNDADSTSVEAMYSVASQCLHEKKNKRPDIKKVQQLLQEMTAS
In words: RBC HotSpot Kinase Assay, IRAK4. The class given is biochemical. The arrangement: purchased Reaction Biology (RBC HotSpot). The settings on record: isolated kinase enzyme, 33P-ATP, P81 filter-binding. The gist of the method:
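Radiometric filter-binding activity assay with isolated recombinant kinase (construct may be truncated or catalytic domain only) in 20 mM Hepes pH 7.5, 10 mM MgCl2, 1 mM EGTA, 2 mM DTT, 1% DMSO. Compound preincubated 20 min with kinase/substrate; reaction started with 33P-ATP, run 2 h at room temperature.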

For test [3], the system named is NF-κB-inducible SEAP reporter in THP-1-Blue NF-κB cells. In words: NF-kB SEAP reporter assay in THP-1-Blue NF-κB cells. The class given is cell-based. The settings on record: 24 hours. In a few lines:
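Cells (1×10^5/well) stimulated with Pam3CSK4 (1 ng/mL) or hIL1B (1 ng/mL), then after 10-20 min given 10-point 1:10 compound dilutions from 1 μM or 3 μM for 24 h at 37° C. Secreted SEAP in supernatant read with QUANTI-Blue (30-60 min, 37° C) at 620 nm.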
(In general: Reporter assays use an easily measured gene product as a stand-in for the process of interest.)

For test [4], the system named is MOLM14-D835Y cells (FLT3-ITD (D835Y) mutant). In words: Combination drug screening with venetoclax in MOLM14 (D835Y) cells (Cell Titre Glo, 10 × 10). The format is cell-based. The settings on record: for Excess HSA (sum excess HSA score, combination with venetoclax): 10 × 10 dataset, Cell Titre Glo at 48 hours, optimal of 4 dose combinations, negative = synergy; for Concentration of a compound of the disclosure, or gilteritinib, needed to decrease the 62.5 nM Ven response to <10% in MOLM14(D835Y) cells: combination with 62.5 nM Venetoclax, Cell Titer Glo, 48 hours, response <10%. The arrangement: Excess HSA (sum excess HSA score, combination with venetoclax): scale not given here. Here is the method: These assays were performed using the Cell Titre Glo assay, measured at 48 hours.
A smaller concentration indicates higher potency to synergize with Venetoclax.

The test system of test [5] is MOLM14 F691L cells. In words: MOLM14 F691L cell viability assay (Cell Titer Glo). The settings on record: Homo sapiens, MOLM-14; cell viability, Cell Titer Glo, 48 hours; read-out: MOLM14 F691L IC50. The format is cell-based. In a few lines:
as §1

Setting [6] is: THP-1-Blue NF-κB cells stimulated with Pam3CSK4 (1 ng/mL), read-out: NF-κB Pam3SCK4 IC50.
The mark [7] stands for this setting: THP-1-Blue NF-κB cells stimulated with hIL1B (1 ng/mL), read-out: NF-κB IL1B IC50.

Each structure is given as a SMILES string. Where two headings read alike, the source gives them in different places.

By IC50 is commonly meant the point on the concentration scale where inhibition reaches its midpoint. Consider `CC(O)(c1ccc2ncc(-c3ccnc(N[C@@H]4CCCNC4)n3)n2c1)C(F)(F)F` (single isomer, unassigned) [Compound 22a], for which the results for the IC50 in test [1] and in test [2] were 36 nM and 3 nM, respectively.
With `CC(O)(c1ccc2ncc(-c3ccnc(N[C@@H]4CCCNC4)n3)n2c1)C(F)(F)F` (single isomer, unassigned) [Compound 23a], the IC50 in test [3] (setting [6]) came to 56 nM; in test [3] (setting [7]), 96 nM; in test [1], 16 nM; in test [2], 0.8 nM.
For `CC(O)(c1ccc2ncc(-c3ccnc(N[C@H]4CNCC[C@@H]4F)n3)n2c1)C(F)(F)F` (single isomer, unassigned) [Compound 25a], the IC50 in test [3] (setting [6]) stood at 193 nM; in test [3] (setting [7]), 152 nM; in test [1] (Homo sapiens, MOLM-14, 48 h), 36 nM; in test [2] it was 2 nM. Also, in test [4], the “Excess HSA (sum excess HSA score, combination with venetoclax)” value (“Excess HSA” below) is on record as −1507. In addition, the “Concentration of a compound of the disclosure, or gilteritinib, needed to decrease the 62.5 nM Ven response to <10% in MOLM14(D835Y) cells” value in test [4] was 25 nM.
As to `CC(O)(c1ccc2ncc(-c3cncc(N[C@@H]4CCCNC4)n3)n2c1)C(F)(F)F` (single isomer, unassigned) [Compound 28a], the IC50 in test [3] (setting [6]) is 96 nM; in test [3] (setting [7]), 149 nM; in test [1] (Homo sapiens, MOLM-14, 48 h), 204 nM; in test [2], 3 nM.
With `CC(O)(c1ccc2ncc(-c3cncc(N[C@H]4CNCC[C@@H]4F)n3)n2c1)C(F)(F)F` (single isomer, unassigned) [Compound 31a], the IC50 was determined as 138 nM in test [3] (setting [6]), 100 nM in test [3] (setting [7]), 162 nM in test [1] and 2 nM in test [2].
As to `COc1cc2ncc(-c3nc(N[C@H]4CNCC[C@@H]4F)ncc3F)n2nc1C1CC1` [Compound 1a, 4-(6-cyclopropyl-7-methoxyimidazo[1,2-b]pyridazin-3-yl)-5-fluoro-N-((3S,4S)-4-fluoropiperidin-3-yl)pyrimidin-2-amine], the IC50 in test [3] (setting [6]) is 17 nM; in test [3] (setting [7]), 22 nM; in test [1] (Homo sapiens, MOLM-14, 48 h) it was 1 nM; in test [5], 6 nM; in test [2], 0.9 nM. In addition, in test [4], the “Excess HSA” value is recorded as −1505. In test [4], the “Concentration of a compound of the disclosure, or gilteritinib, needed to decrease the 62.5 nM Ven response to <10% in MOLM14(D835Y) cells” value came out at 1.6 nM.
On to `FC(F)COc1cc2ncc(-c3ccnc(N[C@H]4CNCC[C@@H]4F)n3)n2nc1C1CC1` [Compound 4a, 4-(6-cyclopropyl-7-(2,2-difluoroethoxy)imidazo[1,2-b]pyridazin-3-yl)-N-((3 S,4S)-4-fluoropiperidin-3-yl)pyrimidin-2-amine], for which the IC50 is 184 nM in test [3] (setting [6]); 166 nM in test [3] (setting [7]); 9 nM in test [1] (Homo sapiens, MOLM-14, 48 h); 36 nM in test [5]; 1 nM in test [2]. Also, the “Excess HSA” value in test [4] is on record as −1769. Also, the “Concentration of a compound of the disclosure, or gilteritinib, needed to decrease the 62.5 nM Ven response to <10% in MOLM14(D835Y) cells” value in test [4] is 6.3 nM.
In the case of `F[C@H]1CCNC[C@@H]1Nc1nccc(-c2cnc3cc(OC4CC4)c(C4CC4)nn23)n1` [Compound 12a, 4-(7-cyclopropoxy-6-cyclopropylimidazo[1,2-b]pyridazin-3-yl)-N-((3S,4S)-4-fluoropiperidin-3-yl)pyrimidin-2-amine], the IC50 in test [3] (setting [6]) worked out at 382 nM; in test [3] (setting [7]) it was 220 nM; in test [1] (Homo sapiens, MOLM-14, 48 h) it was 23 nM; in test [5], 101 nM; in test [2] it was 6 nM. Also, the “Excess HSA” value in test [4] is on record as −1236. Moreover, in test [4], the “Concentration of a compound of the disclosure, or gilteritinib, needed to decrease the 62.5 nM Ven response to <10% in MOLM14(D835Y) cells” value is reported as 100 nM.
`COc1cc2ncc(-c3nc(N[C@H]4CNCC[C@@H]4F)ncc3F)n2nc1C(C)(C)O` [Compound 45a, 2-(3-(5-fluoro-2-(((3S,4S)-4-fluoropiperidin-3-yl)amino)pyrimidin-4-yl)-7-methoxyimidazo[1,2-b]pyridazin-6-yl)propan-2-ol]: the IC50 in test [3] (setting [6]) amounted to 204 nM; in test [3] (setting [7]), 351 nM; in test [1] (Homo sapiens, MOLM-14, 48 h), 15 nM; in test [5] it was 90 nM; in test [2], 8 nM. In test [4], the “Excess HSA” value was −2340. The “Concentration of a compound of the disclosure, or gilteritinib, needed to decrease the 62.5 nM Ven response to <10% in MOLM14(D835Y) cells” value in test [4] is 25 nM.
For `CC(C)(O)c1ccc2ncc(-c3nc(N[C@H]4CNCC[C@@H]4F)ncc3F)n2c1` [Compound 46a, 2-(3-(5-fluoro-2-(((3S,4S)-4-fluoropiperidin-3-yl)amino)pyrimidin-4-yl)imidazo[1,2-a]pyridin-6-yl)propan-2-ol], the IC50 was 103 nM in test [3] (setting [6]); 112 nM in test [3] (setting [7]); 33 nM in test [1] (Homo sapiens, MOLM-14, 48 h); 252 nM in test [5]; 2 nM in test [2]. Moreover, in test [4], the “Excess HSA” value was −1279. Besides, the “Concentration of a compound of the disclosure, or gilteritinib, needed to decrease the 62.5 nM Ven response to <10% in MOLM14(D835Y) cells” value in test [4] is 50 nM.
Take `CC(C)(O)c1ccc2ncc(-c3nc(N[C@@H]4CCCNC4)ncc3F)n2c1` [Compound 48a, (R)-2-(3-(5-fluoro-2-(piperidin-3-ylamino)pyrimidin-4-yl)imidazo[1,2-a]pyridin-6-yl)propan-2-ol]: the IC50 in test [3] (setting [6]) was determined as 56 nM; in test [3] (setting [7]) it was 96 nM; in test [1] (Homo sapiens, MOLM-14, 48 h), 36 nM; in test [2], 5 nM. Also, in test [4], the “Excess HSA” value is on record as −1694. In test [4], the “Concentration of a compound of the disclosure, or gilteritinib, needed to decrease the 62.5 nM Ven response to <10% in MOLM14(D835Y) cells” value is listed as 156.3 nM.
For the molecule `COc1cc2ncc(-c3nc(N[C@H]4CNCC[C@@H]4F)ncc3F)n2nc1C1CC(F)(F)C1` [Compound 49a, 4-(6-(3,3-difluorocyclobutyl)-7-methoxyimidazo[1,2-b]pyridazin-3-yl)-5-fluoro-N-((3S,4S)-4-fluoropiperidin-3-yl)pyrimidin-2-amine], the IC50 in test [3] (setting [6]) was found to be 79 nM; in test [3] (setting [7]), 89 nM; in test [1] (Homo sapiens, MOLM-14, 48 h) it was 15 nM; in test [2], 0.5 nM. Also, the “Excess HSA” value in test [4] was −1960. For the same molecule, the “Concentration of a compound of the disclosure, or gilteritinib, needed to decrease the 62.5 nM Ven response to <10% in MOLM14(D835Y) cells” value in test [4] turned out to be 6.3 nM.
Turning to `COc1cc2ncc(-c3nc(N[C@@H]4CCCNC4)ncc3F)n2nc1C1CC2(CCC2)C1` [Compound 59a, (R)-5-fluoro-4-(7-methoxy-6-(spiro[3.3]heptan-2-yl)imidazo[1,2-b]pyridazin-3-yl)-N-(piperidin-3-yl)pyrimidin-2-amine], the IC50 in test [3] (setting [6]) was 250 nM; in test [3] (setting [7]), 323 nM; in test [1] (Homo sapiens, MOLM-14, 48 h), 7 nM; in test [5], 45 nM; in test [2], 3 nM. For the same molecule, in test [4], the “Excess HSA” value is −1911. Besides, the “Concentration of a compound of the disclosure, or gilteritinib, needed to decrease the 62.5 nM Ven response to <10% in MOLM14(D835Y) cells” value in test [4] came to 12.5 nM.
As to `COc1cc2ncc(-c3nc(N[C@H]4CNC[C@@H]4F)ncc3F)n2nc1N1CCCS1(=O)=O` [Compound 111a, 2-(3-(5-fluoro-2-(((3S,4S)-4-fluoropyrrolidin-3-yl)amino)pyrimidin-4-yl)-7-methoxyimidazo[1,2-b]pyridazin-6-yl)isothiazolidine 1,1-dioxide], the IC50 was found to be 13 nM in test [1] (Homo sapiens, MOLM-14, 48 h); 113 nM in test [5]; 3 nM in test [2].
For the molecule `COc1cc2ncc(-c3nc(N[C@H]4CNCC[C@@H]4F)ncc3F)n2nc1N1CCCS1(=O)=O` [Compound 112a, 2-(3-(5-fluoro-2-(((3S,4S)-4-fluoropiperidin-3-yl)amino)pyrimidin-4-yl)-7-methoxyimidazo[1,2-b]pyridazin-6-yl)isothiazolidine 1,1-dioxide], the IC50 in test [3] (setting [6]) turned out to be 235 nM; in test [3] (setting [7]), 355 nM; in test [1] (Homo sapiens, MOLM-14, 48 h), 3 nM; in test [5] it was 23 nM; in test [2], 3 nM.

These data come from patent US20260226048A1, “MULTI-CYCLIC IRAK AND FLT3 INHIBITING COMPOUNDS AND USES THEREOF” (CHILDREN'S HOSPITAL MEDICAL CENTER, priority 2023, published 2026).
